Source: paper PMC11984905, “Chiral Switch of Gadopiclenol: New Standards in MRI Probes” (Advanced Science, 2025)
Where two headings read alike, the source gives them in different places. Marks after values point to notes of the source that are not given here.

What was measured:
[1] = cited from earlier work
[2] = cited from earlier work; remark: listed apart in the source
[3] = cited from earlier work; remark: listed apart in the source
[4] = cited from earlier work; for pGd: [Gd^3+]tot = 1 µM, [L]tot = 10 µM; for pGd / logK^c GdL: pH 7.4, calculated from literature constants; for *logKGd(H2L): diprotonated out-of-cage intermediate
[5] = 25 °C, cited from earlier work
[6] = cited from earlier work; remark: listed apart in the source
[7] = Biodistribution and in vivo dynamic T1-weighted MRI; design: species or system A/J healthy mice; settings: 0.1 mmol Gd/kg i.v.
Description: Dynamic T 1‐weighted MRI on twelve A/J healthy mice was used to compare the biodistribution of ([Gd(ent‐L2)] and [Gd(BT‐DO3A)] (Gadovist), n = 6 animals each), administered at 0.1 mmol Gd/kg. The MRI monitored the distribution within abdominal tissues for up to 1 h post‐administration MRI images and the pharmacokinetic curves are shown in Figure 6 .
All the procedures and the experiments were conducted according to the national and international laws on experimental animal research (L.D. 26/2014; Directive 2010/63/EU) and under a specific Italian Ministerial Authorization (project research number 46/2015‐PR). Twelve A/J healthy mice (females, 6–7 weeks old, supplied by Envigo RMS S.r.l.) were housed in a controlled environment (22°C, 55% humidity, 15–20 air changes/hour, 12‐h light/dark cycle) with ad libitum access to VRF1 (P) certified pellets and filtered water. To minimize discomfort, the animals were socially housed with enrichment items. Veterinary care was available throughout the study to alleviate any potential pain or distress following procedures. […] The animals were randomly assigned to two experimental groups (n = 6 each, with sample size confirmed via GPower) and underwent to Magnetic Resonance Imaging (MRI) experiments performed using a BioSpec 47/30 preclinical scanner (Bruker Biospin, Ettlingen, Germany) operating at […] (i.e., at a proton Larmor frequency of 125 MHz) and equipped with two‐channel 35 mm RF volume coil. During MRI experiments, all the animals were anaesthetized with isoflurane gas (≈1%) in O2. Anaesthesia was maintained by adjustment of gas level as a function of breath rate. Before injection of each test article, T 1‐weighted spin echo sequences were acquired on the animal in order to check the position of the animal. A series of T 1‐weighted 3D gradient echoscans (repetition time = 50 ms, flip angle = 50°, echo time = 2.8 ms, number of averages = 2, matrix size (3D) = 192 × 192 × 8, field of view = 2.5 × 2.5 × 1.2 cm, acquisition time = 154 s) were then acquired before and after the intravenous administration of a 50 mM saline solution (0.9%) of [Gd(ent‐L2)] (n = 6 mice) and [Gd(BT‐DO3A)] (Gadovist, Bayer Schering, Germany) (n = 6 mice) at an injection rate of ≈2 mL/min through a catheter placed in the tail vein of the animal. Both [Gd(ent‐L2)] and [Gd(BT‐DO3A)] were administered at a dose of 0.1 mmol Gd/kg corresponding to an administration volume of 2 mL kg^−1. The kinetics of the Gd(III)‐complexes was followed up to 60 min post‐injection. After imaging was performed, the mouse was removed from the scanner and returned to the Animal Facility room. At the end of the study all animals were sacrificed by overdose of anaesthesia and cervical dislocation. Unblinded image analysis was performed by positioning the region of interest (ROIs) over liver, kidney, muscle, and blood vessel. ROIs positioning and signal quantification was performed by using a home‐developed plugin, running on Image J.^[ [51] ^]
Signal enhancement (Enh) was calculated using the formula: Enh = 100×(SignalpostCA ‐SignalpreCA)/SignalpreCA, where SignalpreCA and SignalpostCA denote the MR signal before and after administration of contrast agents, respectively. Data were presented as mean ± standard deviation (SD). The sample size (n = 6 per group) was determined a priori using GPower software to ensure adequate statistical power. The Levene's test was employed to assess the homogeneity of variances among groups. For comparisons where homogeneity of variance was confirmed, a one‐way ANalysis Of VAriance (ANOVA) was applied to test the null hypothesis that treatment groups originate from the same distribution. Post‐hoc pairwise multiple comparisons were performed using Tukey's method when significant differences were detected. Statistical analyses and data visualization were conducted using Mathematica (Wolfram, USA), while summary statistics (mean, SD, and standard error) were calculated using Microsoft Excel (USA). […]

[8] = cited from earlier work; for ^298K r 1 [1.5 T] / r 1 ^310K [1.5 T]: water; for τ R: Table 2
[9] = design: method as in earlier work; settings: stability constant of the Na+ complex; cited from earlier work

For `CC(O)CN1CCN(CC(=O)O)CCN(CC(=O)O)CCN(CC(=O)O)CC1` (stereo not shown) [HP‐DO3A], the “logK CaL” value ([1]; 0.1 M Me4NCl, 25 °C) is given as 14.83, the “logK ZnL” value ([2]; 0.1 M Me4NCl, 25 °C) is given as 19.37 and the logKZnHL ([2]; 0.1 M Me4NCl) is given as 3.7. For the same molecule, the “logK CuL” value ([3]; 0.1 M Me4NCl, 25 °C) was 22.84, the logKCuH2L ([3]; 0.1 M Me4NCl) was 2.3 and the logKCuHL ([3]; 0.1 M Me4NCl) was 3.72. The “logK GdL” value ([4]; 0.1 M Me4NCl, 25 °C) was 23.8, the logKGdHL ([4]; 0.1 M Me4NCl) was 1.10 and the logKGdLH-1 ([4]; 0.15 M NaCl, 25 °C) was 11.36^f). The pGd ([4]; 0.1 M Me4NCl) was 18.16, the “*logKGd(H2L)” value ([4]; 0.15 M NaCl, 25 °C) was 5.10^f) and the “logK^c GdL” value ([4]; 0.1 M Me4NCl) was 17.21. For the same molecule, the “logK1^H” value ([5]; 0.1 M Me4NCl) was 11.96, the “logK2^H” value ([5]; 0.1 M Me4NCl) was 9.43 and the “logK3^H” value ([5]; 0.1 M Me4NCl) was 4.30. The “logK4^H” value ([5]; 0.1 M Me4NCl) was 3.26, the “ΣlogKi^H” value ([5]; 0.1 M Me4NCl) was 28.95 and the “k d at pH = 7.4” value ([6]; pH 7.4, 0.1 M NaCl, 25 °C) was 1.0 × 10^−11 s^−1. The “k d at pH = 7.4” value ([6]; pH 7.4, 0.15 M NaCl, 25 °C) was 1.2 × 10^−11 s^−1.
With `O=C([O-])CN1CCN(CC(=O)[O-])CCN(C(CO)C(O)CO)CCN(CC(=O)[O-])CC1.[Gd+3]` (stereo not shown) [[Gd(BT‐DO3A)], reference compound] the “average maximum signal enhancement in the liver” value ([7]; 3 T, n = 6) was “≈ 110%”, the “wash-in and wash-out kinetics” value ([7]; up to 1 h post-administration) was “rapid wash‐in and wash‐out” and the “decrease in signal enhancement in the blood compartment” value ([7]; within 30 min, 3 T) was ≥ 50%. For the same molecule, the k1 ([6]; 25 °C) was 3.4e-05 M⁻¹ s⁻¹ and the “k d at pH = 7.4” value ([6]; pH 7.4, 0.1 M NaCl, 25 °C) was 1.35×10^-12 s^−1.
In the case of `O=C(O)CN1CCN(CC(=O)O)Cc2cccc(n2)CN(CC(=O)O)CC1` [PCTA, 3,6,9,15‐tetraazabicyclo[9.3.1]pentadeca‐1(15),11,13‐triene‐3,6,9 triacetic acid], the “logK CaL” value ([1]; 1.0 M KCl) is given as 12.72, the logKCaHL ([1]; 1.0 M KCl) is given as 3.79 and the “logK ZnL” value ([2]; 1.0 M KCl) is given as 20.48. The logKZnHL ([2]; 1.0 M KCl) was 3.10, the “logK CuL” value ([3]; 1.0 M KCl) was 18.79 and the logKCuHL ([3]; 1.0 M KCl) was 3.58. The “logK GdL” value ([4]; 1.0 M KCl) was 20.39, the logKGdLH-1 ([4]; 1.0 M KCl) was 11.10 and the pGd ([4]; 1.0 M KCl) was 17.11. The “*logKGd(H2L)” value ([4]; 1.0 M KCl) was 3.12, the “logK^c GdL” value ([4]; 1.0 M KCl) was 16.15 and the “logK1^H” value ([5]; 0.15 M NaCl) was 9.97. For the same molecule, the “logK2^H” value ([5]; 0.15 M NaCl) was 6.73, the “logK3^H” value ([5]; 0.15 M NaCl) was 3.22 and the “logK4^H” value ([5]; 0.15 M NaCl) was 1.40. The “ΣlogKi^H” value ([5]; 0.15 M NaCl) was 21.32, the “logK1^H” value ([5]; 1.0 M KCl) was 11.36 and the “logK2^H” value ([5]; 1.0 M KCl) was 7.35. For the same molecule, the “logK3^H” value ([5]; 1.0 M KCl) was 3.83, the “logK4^H” value ([5]; 1.0 M KCl) was 2.12 and the “ΣlogKi^H” value ([5]; 1.0 M KCl) was 25.95.
In the case of `O=C([O-])CN1CCN(CC(=O)[O-])Cc2cccc(n2)CN(CC(=O)[O-])CC1.[Gd+3]` [[Gd(PCTA)]], the “^298K r 1 [1.5 T]” value [8] is given as 6.4 mM⁻¹ s⁻¹, the “r 1 ^310K [1.5 T]” value [8] is given as 4.9 mM⁻¹ s⁻¹ and the τ R [8] is given as 63 ps. The q [8] was 2, the “τ M1” value [8] was 151 ns and the “τ M2” value [8] was 36 ns.
In the case of `O=C([O-])CN1CCN(CC(=O)[O-])CCN(CC(=O)[O-])CCN(CC(=O)[O-])CC1.[Gd+3]` [[Gd(DOTA)]^−], the k1 ([6]; 0.15 M NaCl, 25 °C) is given as 1.8e-06 M⁻¹ s⁻¹, the “K^HGd(HL)” value ([6]; 3.0 M NaClO4, 25 °C) is given as 14^d) M^-1 and the k1 ([6]; 25 °C) is given as 8.4e-06 M⁻¹ s⁻¹. For the same molecule, the “k d at pH = 7.4” value ([6]; pH 7.4, 0.15 M NaCl, 25 °C) was 7.3×10^-14 s^−1, the “k d at pH = 7.4” value ([6]; pH 7.4, 25 °C) was 3.3×10^-14 s^−1 and the k0 ([6]; spontaneous dissociation, 0.15 M NaCl, 25 °C) was 6.7×10^-11 b) s^-1. The “^298K r 1 [1.5 T]” value [8] was 4.2 mM⁻¹ s⁻¹, the “r 1 ^310K [1.5 T]” value [8] was 3.3 mM⁻¹ s⁻¹ and the τ R [8] was 90 ps. The q [8] was 1 and the “τ M1” value [8] was 208 ns.
In the case of `O=C(O)CN1CCN(CC(=O)O)CCN(CC(=O)O)CCN(CC(=O)O)CC1` [DOTA], the “logK CaL” value ([1]; 0.1 M KCl) is listed as 16.37, the logKCaHL ([1]; 0.1 M KCl) is listed as 3.60 and the “logK ZnL” value ([2]; 0.1 M KCl) is listed as 18.7. For the same molecule, the logKZnH2L ([2]; 0.1 M KCl) was 3.96, the logKZnHL ([2]; 0.1 M KCl) was 5.33 and the “logK CuL” value ([3]; 0.1 M KCl) was 22.72. The logKCuH2L ([3]; 0.1 M KCl) was 3.92, the logKCuHL ([3]; 0.1 M KCl) was 4.45 and the logKGdHL ([4]; 0.1 M KCl) was 1.15. For the same molecule, the “logK GdL” value ([4]; 0.1 M Me4NCl, 25 °C) was 25.6, the “logK GdL” value ([4]; 0.1 M NaCl, 25 °C) was 24.7 and the pGd ([4]; 0.1 M Me4NCl, 25 °C) was 20.24. The pGd ([4]; 0.1 M NaCl, 25 °C) was 22.09, the “*logKGd(H2L)” value ([4]; 0.15 M NaCl, 25 °C) was 6.07^f) and the “logK^c GdL” value ([4]; 0.1 M Me4NCl, 25 °C) was 19.29. For the same molecule, the “logK^c GdL” value ([4]; 0.1 M NaCl, 25 °C) was 21.14, the “logK1^H” value ([5]; 0.1 M KCl) was 11.14 and the “logK2^H” value ([5]; 0.1 M KCl) was 9.69. For the same molecule, the “logK3^H” value ([5]; 0.1 M KCl) was 4.85, the “logK4^H” value ([5]; 0.1 M KCl) was 3.95 and the “ΣlogKi^H” value ([5]; 0.1 M KCl) was 29.63. The “logK1^H” value ([5]; 0.1 M Me4NCl) was 11.45, the “logK2^H” value ([5]; 0.1 M Me4NCl) was 9.64 and the “logK3^H” value ([5]; 0.1 M Me4NCl) was 4.60. The “logK4^H” value ([5]; 0.1 M Me4NCl) was 4.11, the “logK5^H” value ([5]; 0.1 M Me4NCl) was 2.29 and the “ΣlogKi^H” value ([5]; 0.1 M Me4NCl) was 32.09. For the same molecule, the “logK1^H” value ([5]; 0.15 M NaCl) was 9.14, the “logK2^H” value ([5]; 0.15 M NaCl) was 9.21 and the “logK3^H” value ([5]; 0.15 M NaCl) was 4.48. The “logK4^H” value ([5]; 0.15 M NaCl) was 4.03, the “logK5^H” value ([5]; 0.15 M NaCl) was 1.99^d) and the “ΣlogKi^H” value ([5]; 0.15 M NaCl) was 28.85. The “logKNa(L)” value [9] was 4.38 and the “k d at pH = 7.4” value ([6]; pH 7.4, 0.15 M NaCl, 25 °C) was 7.3 × 10^−14 s^−1.
